pIC50: −log10 of the molar value.
What was measured:
Dipeptidyl peptidase 4 = Dipeptidyl peptidase 4 (Homo sapiens, UniProt P27487)
Dipeptidyl peptidase 2 = Dipeptidyl peptidase 2 (Homo sapiens, UniProt Q9UHL4); test: Inhibition of human recombinant DPP2
[1] = Half life in po dosed rat plasma; type: ADME, organism-based
[2] = Half life in iv dosed dog plasma; type: ADME, organism-based, Canis lupus familiaris
[3] = Oral bioavailability in rat plasma; type: ADME, organism-based
[4] = Plasma clearance in rat; type: ADME, organism-based
[5] = Percent of unbound ligand in dog plasma; type: ADME, cell-free, Canis lupus familiaris
[6] = Half life in iv dosed rat plasma; type: ADME, organism-based
Dipeptidyl peptidase 3 = target: T1, Dipeptidyl peptidase 3 (Homo sapiens, UniProt Q9NY33); test: Inhibition of DPP3
T1 sequence (Q9NY33 whole entry): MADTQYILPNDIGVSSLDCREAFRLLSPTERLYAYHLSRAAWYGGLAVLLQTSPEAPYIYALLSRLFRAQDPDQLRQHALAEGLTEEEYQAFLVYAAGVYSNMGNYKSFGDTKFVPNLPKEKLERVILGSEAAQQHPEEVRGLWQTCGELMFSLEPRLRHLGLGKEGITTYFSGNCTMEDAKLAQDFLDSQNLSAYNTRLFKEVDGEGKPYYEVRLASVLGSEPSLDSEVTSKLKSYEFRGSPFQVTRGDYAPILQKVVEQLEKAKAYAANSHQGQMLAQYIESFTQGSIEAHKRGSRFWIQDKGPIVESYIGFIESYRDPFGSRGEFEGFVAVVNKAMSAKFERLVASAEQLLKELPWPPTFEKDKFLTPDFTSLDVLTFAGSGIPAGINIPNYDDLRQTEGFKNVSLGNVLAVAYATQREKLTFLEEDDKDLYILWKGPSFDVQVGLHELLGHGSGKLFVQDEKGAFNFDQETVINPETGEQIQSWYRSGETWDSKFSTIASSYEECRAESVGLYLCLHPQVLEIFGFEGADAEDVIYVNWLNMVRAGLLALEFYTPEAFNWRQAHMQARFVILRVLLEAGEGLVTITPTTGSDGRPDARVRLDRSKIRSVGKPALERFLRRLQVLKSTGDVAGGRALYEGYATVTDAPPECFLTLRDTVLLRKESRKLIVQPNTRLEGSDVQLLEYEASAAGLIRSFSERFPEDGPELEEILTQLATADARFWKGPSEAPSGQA

[7] = Plasma clearance in dog; type: ADME, organism-based, Canis lupus familiaris
[8] = Volume of distribution at steady state in dog plasma; type: ADME, organism-based, Canis lupus familiaris; details: read-out: Vdss
[9] = Volume of distribution at steady state in rat plasma; type: ADME, organism-based; details: read-out: Vdss

Sequence of Dipeptidyl peptidase 4 (P27487 whole entry): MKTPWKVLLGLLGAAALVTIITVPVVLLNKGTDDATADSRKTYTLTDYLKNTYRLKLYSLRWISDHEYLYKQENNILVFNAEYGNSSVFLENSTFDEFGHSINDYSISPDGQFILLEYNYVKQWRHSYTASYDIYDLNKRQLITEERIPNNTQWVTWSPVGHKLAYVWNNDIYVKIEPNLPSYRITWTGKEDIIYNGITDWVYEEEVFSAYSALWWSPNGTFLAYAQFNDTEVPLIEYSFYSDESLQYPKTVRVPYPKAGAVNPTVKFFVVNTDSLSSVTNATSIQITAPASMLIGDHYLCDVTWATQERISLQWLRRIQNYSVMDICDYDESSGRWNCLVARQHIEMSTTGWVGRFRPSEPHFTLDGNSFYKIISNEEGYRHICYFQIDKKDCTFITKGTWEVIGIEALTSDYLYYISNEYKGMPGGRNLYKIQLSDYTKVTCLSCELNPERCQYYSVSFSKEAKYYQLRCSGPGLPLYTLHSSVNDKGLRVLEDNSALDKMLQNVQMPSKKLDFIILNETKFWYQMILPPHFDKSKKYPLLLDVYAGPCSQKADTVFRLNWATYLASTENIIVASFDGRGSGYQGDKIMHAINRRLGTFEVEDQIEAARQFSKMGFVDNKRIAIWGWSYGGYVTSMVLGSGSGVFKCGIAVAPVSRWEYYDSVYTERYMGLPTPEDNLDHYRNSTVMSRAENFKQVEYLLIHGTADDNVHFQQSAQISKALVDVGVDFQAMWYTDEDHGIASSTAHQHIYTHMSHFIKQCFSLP

Row | Structure (SMILES) | pIC50 (Dipeptidyl peptidase 4) | other results
1 | N[C@H]1CN(c2cnc3ccccc3n2)C[C@@H]1c1ccccc1 | < 5.52 | –
2 | N[C@H]1CN(c2ccc3ccccc3n2)C[C@@H]1c1ccccc1 | < 5.52 | –
3 | N#Cc1cccnc1N1C[C@H](c2ccccc2)[C@@H](N)C1 | < 5.52 | –
4 | N[C@H]1CN(c2cc(-c3ccccc3Cl)ncn2)C[C@@H]1c1ccccc1 | < 5.52 | –
5 | N[C@H]1CN(c2cc(-c3ccccc3)ncn2)C[C@@H]1c1cc(F)c(F)cc1F | – | pIC50 (Dipeptidyl peptidase 2): 4.74
6 | N[C@H]1CN(c2cc(-c3cccc(F)c3)ncn2)C[C@@H]1c1cc(F)c(F)cc1F | – | pIC50 (Dipeptidyl peptidase 2): 4.82
7 | COc1ccc(-c2cc(N3C[C@H](c4cc(F)c(F)cc4F)[C@@H](N)C3)ncn2)cn1 | – | half-life [1]: 3.3 h; pIC50 (Dipeptidyl peptidase 2): 4.72; half-life [2]: 5.1 h; bioavailability [3]: 57%; clearance [4]: 4.4 mL/min/kg; fraction unbound [5]: 0.17; half-life [6]: 2.8 h; pIC50 (Dipeptidyl peptidase 3): < 4.52; clearance [7]: 4.8 mL/min/kg; Vd [8]: 1.9 L/kg; Vd [9]: 0.67 L/kg
8 | Cn1cnc2c(N3C[C@H](c4ccccc4)[C@@H](N)C3)ncnc21 | < 5.52 | –
9 | N[C@H]1CN(c2cc(-c3ccc(O)cc3)ncn2)C[C@@H]1c1ccccc1 | < 5.52 | –
10 | N[C@H]1CN(c2cc(Cl)nc(-c3ccccc3)n2)C[C@@H]1c1ccccc1 | < 5.52 | –
11 | N[C@H]1CN(c2cc(-c3ccc(Cl)cc3)ncn2)C[C@@H]1c1ccccc1 | < 5.52 | –
12 | CC(=O)c1ccc(N2C[C@H](c3ccccc3)[C@@H](N)C2)nc1 | < 5.52 | –
13 | CC(C)c1ccc([C@@H]2CN(c3nc4c(cc3F)c(=O)c(C(=O)O)cn4C3CC3)C[C@@H]2N)cc1 (relative stereo) | < 5.52 | –
14 | COC(=O)c1ccc([C@@H]2CN(c3nc4c(cc3F)c(=O)c(C(=O)O)cn4C3CC3)C[C@@H]2N)cc1 (relative stereo) | < 5.52 | –
15 | COc1ccc([C@@H]2CN(c3nc4c(cc3F)c(=O)c(C(=O)O)cn4C3CC3)C[C@@H]2N)cc1 (relative stereo) | < 5.52 | –
16 | CN(C)c1ccc([C@@H]2CN(c3nc4c(cc3F)c(=O)c(C(=O)O)cn4C3CC3)C[C@@H]2N)cc1 (relative stereo) | < 5.52 | –
17 | N[C@H]1CN(c2nc3c(cc2F)c(=O)c(C(=O)O)cn3C2CC2)C[C@H]1c1ccc(O)cc1 (relative stereo) | < 5.52 | –
18 | Nc1ccc([C@@H]2CN(c3nc4c(cc3F)c(=O)c(C(=O)O)cn4C3CC3)C[C@@H]2N)cc1 (relative stereo) | < 5.52 | –
